From patent US9173951B2, “Carbohydrate-based drug delivery polymers and conjugates thereof” (NEKTAR THERAPEUTICS, priority 2008, dated 2015)

Tested on: db/db diabetic mice
Assay: Blood glucose levels in db/db diabetic mice after i.p. injection
Format: in vivo
Method: Blood glucose levels were measured At different time points after dosing.
Study Procedure: Animals were acclimated to researcher's handling procedures. Baseline glucose levels were measured prior to drug administration. Outlier animals with glucose level <300 or >600 mg/dL were excluded from the study. Animals were assigned randomly to different groups, as follows:
At different time points (1, 2, 4, 8, and 24 hrs), blood was collected by tail clipping, and glucose level was measured using a One Touch® Ultra glucometer (Johnson & Johnson; Life Scan Ltd.)

## dextran-butyrALD-40K-insulin [20b]
250 ug/mouse ip, 1 hr
  Glucose level, mean: 263+39 mg/dL
  reduction of glucose level vs time 0: 47%
250 ug/mouse ip, 1 hr, listed as Dex-Ins
  Glucose level, mean: 263 mg/dL
250 ug/mouse ip, 2 hr
  Glucose level, mean: 192+36 mg/dL
  reduction of glucose level vs time 0: 61%
250 ug/mouse ip, 2 hr, listed as Dex-Ins
  Glucose level, mean: 192 mg/dL
250 ug/mouse ip, 4 hr
  Glucose level, mean: 462 mg/dL
250 ug/mouse ip, 8 hr
  Glucose level, mean: 494 mg/dL
250 ug/mouse ip, 24 hr
  Glucose level, mean: 517 mg/dL
250 ug/mouse ip, time 0 (baseline)
  Glucose level, mean: 495+32 mg/dL
250 ug/mouse ip, time 0 (baseline), listed as Dex-Ins
  Glucose level, mean: 495 mg/dL

## insulin
5 ug/mouse ip, 1 hr
  Glucose level, mean: 265 mg/dL
  reduction of glucose level vs time 0: 48%
5 ug/mouse ip, 2 hr
  Glucose level, mean: 352 mg/dL
  reduction of glucose level vs time 0: 31%
5 ug/mouse ip, 4 hr
  Glucose level, mean: 587 mg/dL
5 ug/mouse ip, 8 hr
  Glucose level, mean: 538 mg/dL
5 ug/mouse ip, 24 hr
  Glucose level, mean: 538 mg/dL
5 ug/mouse ip, time 0 (baseline)
  Glucose level, mean: 510 mg/dL
50 ug/mouse ip, 1 hr
  Glucose level, mean: 210 mg/dL
  reduction of glucose level vs time 0: 53%
50 ug/mouse ip, 2 hr
  Glucose level, mean: 150 mg/dL
  reduction of glucose level vs time 0: 67%
50 ug/mouse ip, 4 hr
  Glucose level, mean: 550 mg/dL
50 ug/mouse ip, 8 hr
  Glucose level, mean: 558 mg/dL
50 ug/mouse ip, 24 hr
  Glucose level, mean: 541 mg/dL
50 ug/mouse ip, time 0 (baseline)
  Glucose level, mean: 445 mg/dL
